The record followed here is patent publication US12617785B2, “Pyrrolo[2,3-b]pyridine-3-carboxamide compositions and methods for ameliorating hearing loss” (priority 2020, dated 2026).

The test system of test [1] is adult utricular supporting cells. The experiment in a line: EdU proliferation assay in cultured adult utricles. Particulars: after 5 days of treatment; control=20; p=0.021. It counts as cell-based, mice. The protocol:
(§1) The compound T01 was tested extensively to explore its mechanism of action and its utility in regenerating hair cells of the ear. The effects of the compounds were tested on utricles isolated from mice eight to twelve weeks of age. Internal ears were dissected from mice euthanized with fluothane and placed into ice-cold Hank's balanced salt solution, and cultured as previously described by Gnedeva, K. & Hudspeth [Proc. Natl. Acad. Sci. 112, 14066-14071 (2015)].
For proliferation assays, utricles were cultured with 10 μM 5-ethynyl-2′-deoxyuridine (EdU) that was detected with click chemistry.
(§2) ; T01-treated=250 EdU+ supporting cells; […]

Test [2] relates to Yap. The experiment in a line: Yap phosphorylation by western blot in cultured utricles. It counts as cell-based. The note with it: utricles from adult mice. Here is the method: as §1, §2
Test [3] deals with T1, Lats1 (Homo sapiens, UniProt O95835).
T1 construct: purchased Carna 01-123
T1 sequence (O95835 1-1130): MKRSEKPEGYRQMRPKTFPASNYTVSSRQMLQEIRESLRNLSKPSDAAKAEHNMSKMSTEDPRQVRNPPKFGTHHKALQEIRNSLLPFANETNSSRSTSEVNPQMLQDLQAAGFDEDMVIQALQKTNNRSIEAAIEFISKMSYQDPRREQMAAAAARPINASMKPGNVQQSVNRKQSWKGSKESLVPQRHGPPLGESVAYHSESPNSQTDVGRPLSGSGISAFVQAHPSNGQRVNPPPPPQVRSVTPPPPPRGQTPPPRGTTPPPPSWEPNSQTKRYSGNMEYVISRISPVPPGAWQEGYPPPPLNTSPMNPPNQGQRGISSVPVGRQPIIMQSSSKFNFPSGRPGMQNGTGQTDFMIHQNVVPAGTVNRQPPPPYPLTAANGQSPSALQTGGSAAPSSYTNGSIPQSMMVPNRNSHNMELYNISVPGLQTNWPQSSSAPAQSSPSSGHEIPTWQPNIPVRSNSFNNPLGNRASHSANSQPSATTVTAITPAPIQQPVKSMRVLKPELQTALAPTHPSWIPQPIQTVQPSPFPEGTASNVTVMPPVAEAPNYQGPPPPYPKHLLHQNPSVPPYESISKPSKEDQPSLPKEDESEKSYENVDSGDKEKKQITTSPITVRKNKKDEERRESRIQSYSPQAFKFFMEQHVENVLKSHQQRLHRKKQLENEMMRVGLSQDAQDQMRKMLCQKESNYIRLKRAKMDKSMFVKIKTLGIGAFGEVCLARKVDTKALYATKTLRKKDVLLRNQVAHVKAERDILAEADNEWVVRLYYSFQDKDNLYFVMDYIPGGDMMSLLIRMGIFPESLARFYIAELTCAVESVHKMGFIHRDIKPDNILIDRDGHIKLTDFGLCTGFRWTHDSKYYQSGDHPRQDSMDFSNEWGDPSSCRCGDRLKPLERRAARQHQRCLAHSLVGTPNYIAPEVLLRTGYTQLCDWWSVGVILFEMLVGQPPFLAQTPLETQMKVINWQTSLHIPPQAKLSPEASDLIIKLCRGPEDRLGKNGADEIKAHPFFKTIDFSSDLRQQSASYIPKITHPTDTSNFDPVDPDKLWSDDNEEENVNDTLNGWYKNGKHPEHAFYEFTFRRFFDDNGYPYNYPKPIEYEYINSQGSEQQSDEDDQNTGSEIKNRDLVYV
The experiment in a line: In vitro kinase assay (HTRF KinEASE-STK S1) Lats1, 2 mM ATP. The class given is biochemical. Here is the method: (§3) Reactions were conducted with 10 μM STK1 substrate and 10 μM ATP or 2 mM ATP as shown below. […] The enzyme, substrate, ATP, and test compound of the invention were combined in a low-volume 384-well plate and shaken for 50 min at room temperature, unless otherwise indicated. The reaction was stopped by adding the detection reagents, which were prepared at an 8:1 biotin:streptavidin ratio and shaking for 60 min at room temperature. All reactions were conducted in triplicate and a Synergy NEO (Biotek) was used to detect the signal.
Assay was carried out in a 384 well plate. Each drug dosage curve was done with 16 points of 3-fold dilutions in 100% DMSO, and triplicate.
On the technique in general: Time-resolved FRET reads energy transfer from a long-lived donor to a nearby acceptor.

Test [4] addresses T1, Lats1. The experiment in a line: In vitro kinase assay (HTRF KinEASE-STK S1) Lats1, 10 uM ATP. It counts as biochemical. Here is the method:
IVKA assay at 10 uM method:
as §3

The mark [5] stands for this setting: 2 mM ATP, read-out: LATS1_HTRF_2 mM ATP IC50.
Setting [6] is: 10 uM ATP, read-out: LATS1_HTRF_10 uM ATP IC50.

Turning to `O=C(/N=c1\sccn1Cc1ccccc1)c1c[nH]c2ncccc12` [T01, (Z)—N-(3-benzylthiazol-2(3H)-ylidene)-1H-pyrrolo[2,3-b]pyridine-3-carboxamide], the “EdU+ supporting cells” value in test [1] was 250. The “level of Yap phosphorylation as detected by western blot” value in test [2] is on record as “striking reduction”. A word on the IC50: it is the point on the concentration scale where inhibition reaches its midpoint. Regarding `O=C(/N=c1\sccn1-c1ccccc1)c1c[nH]c2ncccc12` [T14], the IC50 came to 3 nM in test [3] (setting [5]) and 0.3 nM in test [4] (setting [6]). Consider `O=C(/N=c1\occn1Cc1ccccc1)c1c[nH]c2ncccc12` [T25], for which the values for the IC50 in test [3] (setting [5]) and in test [4] (setting [6]) were 59.2 nM and 1.9 nM, respectively. As to `CC(c1ccccc1)n1ccs/c1=N\C(=O)c1c[nH]c2ncccc12` (stereo not shown) [T39, (Z)—N-(3-(1-Phenylethyl)thiazol-2(3H)-ylidene)-1H-pyrrolo[2,3-b]pyridine-3-carboxamide], the IC50 in test [3] came out at 59.2 nM; in test [4], 1.9 nM.

Consider `CC(N)CCn1ccs/c1=N\C(=O)c1c[nH]c2ncccc12` (stereo not shown) [T41, (Z)—N-(3-(3-aminobutyl)thiazol-2(3H)-ylidene)-1H-pyrrolo[2,3-b]pyridine-3-carboxamide], for which the IC50 amounted to 303 nM in test [3] (setting [5]) and 4.4 nM in test [4] (setting [6]). `N#Cc1ccccc1Cn1ccs/c1=N\C(=O)c1c[nH]c2ncccc12` [T42, (Z)—N-(3-(2-cyanobenzyl)thiazol-2(3H)-ylidene)-1H-pyrrolo[2,3-b]pyridine-3-carboxamide]: the IC50 in test [4] (setting [6]) is 12.9 nM. For `NCc1ccccc1Cn1ccs/c1=N\C(=O)c1c[nH]c2ncccc12` [T43, (Z)—N-(3-(2-(aminomethyl)benzyl)thiazol-2(3H)-ylidene)-1H-pyrrolo[2,3-b]pyridine-3-carboxamide], the IC50 was 141 nM in test [3] (setting [5]) and 2.2 nM in test [4] (setting [6]). For `N#Cc1cccc(Cn2ccs/c2=N\C(=O)c2c[nH]c3ncccc23)c1` [T44, (Z)—N-(3-(3-cyanobenzyl)thiazol-2(3H)-ylidene)-1H-pyrrolo[2,3-b]pyridine-3-carboxamide], in test [4] (setting [6]), the IC50 is 260 nM. Regarding `NCc1cccc(Cn2ccs/c2=N\C(=O)c2c[nH]c3ncccc23)c1` [T45, (Z)—N-(3-(3-(aminomethyl)benzyl)thiazol-2(3H)-ylidene)-1H-pyrrolo[2,3-b]pyridine-3-carboxamide], the IC50 is 309 nM in test [3] (setting [5]) and 30.7 nM in test [4] (setting [6]).

On to `N#Cc1ccc(Cn2ccs/c2=N\C(=O)c2c[nH]c3ncccc23)cc1` [T46, (Z)—N-(3-(4-cyanobenzyl)thiazol-2(3H)-ylidene)-1H-pyrrolo[2,3-b]pyridine-3-carboxamide], for which, in test [4] (setting [6]), the IC50 was 391 nM. As to `NCc1ccc(Cn2ccs/c2=N\C(=O)c2c[nH]c3ncccc23)cc1` [T47, (Z)—N-(3-(4-(aminomethyl)benzyl)thiazol-2(3H)-ylidene)-1H-pyrrolo[2,3-b]pyridine-3-carboxamide], the IC50 in test [4] (setting [6]) was found to be 83.2 nM. On to `O=Cc1ccc(Cn2ccs/c2=N\C(=O)c2c[nH]c3ncccc23)cc1` [T48, (Z)—N-(3-(4-formylbenzyl)thiazol-2(3H)-ylidene)-1H-pyrrolo[2,3-b]pyridine-3-carboxamide], for which the IC50 in test [4] came out at 800 nM. On to `Cc1cs/c(=N\C(=O)c2c[nH]c3ncccc23)n1Cc1ccccc1` [T49], for which the IC50 in test [3] came to 0.5 nM; in test [4], 2.7 nM. Consider `Cn1nccc1Cn1ccs/c1=N\C(=O)c1c[nH]c2ncccc12` [T58], for which the IC50 in test [4] (setting [6]) is 128 nM.
